Tested on: Botrytis cinerea
Assay: Treatment of wounded strawberries inoculated with Botrytis cinerea (Examples 5, 6)
Type: in vivo
Conditions: for Observed antifungal activity O (%): strawberries, 20° C.
Experimental: Twelve fresh, organic strawberries were used per treatment. Each strawberry was wounded with a 0.5 mm long cut and each wound was inoculated with 10 μl of a Botrytis cinerea suspension containing 1×10^5 of spores/ml. After a 3-hour incubation period at 20° C., each strawberry was dipped individually for 1 minute in a freshly prepared aqueous antifungal composition comprising either 500 ppm natamycin (DSM Food Specialties, Delft, The Netherlands), 500 ppm fenhexamid or both. Each antifungal composition also comprised 3.2% (w/w) beeswax, 0.8% (w/w) glycerol, 0.7% (w/w) polyoxyethylene sorbitan monostearate (Tween 60), 0.1% (w/w) polyoxyethylene sorbitan monooleate (Tween 80), 0.05% (w/w) methylhydroxyethyl-cellulose (MHEC), 0.03% (w/w) anti-foaming agent, 0.02% (w/w) xanthan gum, 0.02% (w/w) citric acid, 0.01% (w/w) lactic acid and 0.01% potassium sorbate. A composition without natamycin or fenhexamid was used as control. […] The treated strawberries were incubated in a closed box in the dark at 20° C. for 11 days.
The expected antifungal activity (E in %) of the combined antifungal composition comprising both active ingredients was calculated according to the Colby equation (Colby, 1967): […]
wherein X and Y are the observed antifungal activities (in %) of the individual active ingredients X and Y, respectively.
The experiment was conducted as described in Example 5, except for the fact that each wounded and inoculated strawberry was dipped individually for 1 minute in a freshly prepared aqueous antifungal composition comprising either 250 ppm natamycin (DSM Food Specialties, Delft, The Netherlands), 250 ppm fenhexamid or both. The treated strawberries were incubated in a closed box in the dark at 20° C. for 10 days. During incubation, the treated strawberries were assessed on mould growth according to the two methods described in Example 5.

C[C@@H]1C/C=C/C=C/C=C/C=C/[C@H](O[C@@H]2O[C@H](C)[C@@H](O)[C@H](N)[C@@H]2O)C[C@@H]2O[C@](O)(C[C@@H](O)C[C@H]3O[C@@H]3/C=C/C(=O)O1)C[C@H](O)[C@H]2C(=O)O [Natamycin, natamycin]
Number of moulded strawberries/total number of 12 strawberries (Day 5, 20° C., 250 ppm natamycin, 250 ppm fenhexamid or both): 9/12
Number of moulded strawberries/total number of 12 strawberries (Day 5, 20° C., 250 ppm natamycin, 250 ppm fenhexamid or both, listed as natamycin): 9
Number of moulded strawberries/total number of 12 strawberries (Day 6-7, 20° C., 250 ppm natamycin, 250 ppm fenhexamid or both): 11/12
Number of moulded strawberries/total number of 12 strawberries (Day 6-7, 20° C., 250 ppm natamycin, 250 ppm fenhexamid or both, listed as natamycin): 11
Number of moulded strawberries/total number of 12 strawberries (Day 7-8, 20° C., 500 ppm natamycin, 500 ppm fenhexamid or both): 12/12
Number of moulded strawberries/total number of 12 strawberries (Day 8, 20° C., 250 ppm natamycin, 250 ppm fenhexamid or both): 11/12
Number of moulded strawberries/total number of 12 strawberries (Day 8, 20° C., 250 ppm natamycin, 250 ppm fenhexamid or both, listed as natamycin): 11
Number of moulded strawberries/total number of 12 strawberries (Day 9, 20° C., 500 ppm natamycin, 500 ppm fenhexamid or both): 12/12
Number of moulded strawberries of 12 (after 6 through 9 days of incubation, 500 ppm natamycin alone or 500 ppm fenhexamid alone): 12
Observed antifungal activity O (%) (8 days, 250 ppm natamycin, 250 ppm fenhexamid or both): 18%
Observed antifungal activity O (%) (9 days, 250 ppm natamycin, 250 ppm fenhexamid or both): 13%
Observed antifungal activity O (%) (10 days, 250 ppm natamycin, 250 ppm fenhexamid or both): 4.8%
Observed antifungal activity O (%) (10 days, 500 ppm natamycin, 500 ppm fenhexamid or both): 2.4%
Observed antifungal activity O (%) (11 days, 500 ppm natamycin, 500 ppm fenhexamid or both): 2.4%
